# Legend:
# [1] = tested on: Tobacco mosaic virus (TMV); test: Infection rate of TMV on Nicotiana benthamiana, inoculum from lyophilized infected leaves, RT-PCR detection; type: in vivo; conditions: N. benthamiana
# Method: (§1) Plants were grown in a growth chamber with 10,000 lux fluorescent light and a 16-h light/8-h dark cycle. N. glutinosa (6-7 weeks old, 8-10 leaf stage), N. benthamiana (3-4 weeks old, 5-6 leaf stage) and Brassica juncea (14 days old, 2-3 true-leaf stage) were used for treatment and/or inoculation. For virus inoculation, plants were dusted with 600-grit silicon carbide powder (Sigma-Aldrich, St. Louis, Mo., USA) and mechanically inoculated. Virus inoculum was prepared with 100 ml of 0.1 M potassium phosphate (KP) buffer (61.5% of 0.1 M K2HPO4 and 38.5% 0.1 M KH2PO4, pH 7.0) mixed with 0.1 g of lyophilized leaves of plants infected with Tobacco mosaic virus (TMV) (FIGS. 1, 4A-E, 8 and 9; FIG. 10, 11, 12, 14 and 15; Table 1), or TMV tagged with green fluorescence protein (TMV-GFP) (FIG. 5) (Rabindran, S., and Dawson, W.O. 2001. Assessment of recombinants that arise from the use of a TMV-based transient expression vector. Virology 284:182-189). Different concentrations of TMV purified particle inoculum was diluted with 0.1 M potassium phosphate (KP) buffer (61.5% of 0.1 M K2HPO4 and 38.5% 0.1 M KH2PO4, pH 7.0) (FIGS. 2, 3, and 4F; Table 2). Turnip mosaic virus (TuMV) inoculum was prepared with 0.1 g of fresh leaves from plants infected with TuMV ground with 10 ml of 0.1 M sodium phosphate buffer (0.1 M NaH2PO4, 0.1 M Na2HPO4 and 0.5% Na2SO3, pH 7.4). The severity of TMV or TuMV symptom of infected plants were scored based on external phenotype (FIG. 15). Transmission electron microscope (Philips Electronic Instruments, Mahwah, N.J.) was used to examine TMV particles of different inoculums.
# (§2) Whole plants were sprayed with 0.4 ml H2O, VB, culture filtrate derived from microorganism or 5 mM salicylic acid (SA, Sigma-Aldrich) for total of three times with a 24-h interval between each spray. Twenty-four hours after the final treatment, plants were rubbed with the virus inoculum.
# Besides using N. glutinosa for our initial screening, we also used N. benthamiana, a host that is highly susceptible to TMV, for resistance assay. N. benthamiana was pretreated with H2O, SA, VB, F2- or F8-culture filtrate as for pretreatment of N. glutinosa. All treated plants were inoculated with TMV inoculum made from lyophilized leaves of TMV infected N. benthamiana. […] With RT-PCR to detect TMV on all treated plants, the infection rate was much reduced with F8-culture filtrate than H2O, SA, VB or F2-culture filtrate pretreatment (Table 1). In our repeat experiments, the infection rate of TMV-inoculated plants with F8-culture filtrate pretreatment even decreased to 0% (Table 1). […] We prepared at least 7 different batches of F8-culture filtrate, and the ability to induce resistance against TMV was consistent between different batches (Table 1).
# [2] = tested on: Tobacco mosaic virus (TMV) particle; test: Infection rate of purified TMV particle on Nicotiana benthamiana; type: in vivo; conditions: Table 2, N. benthamiana, 7 dpi, RT-PCR, SA 5 mM
# Method: as §1
# Leaves of TMV-infected N. benthamiana were harvested approximately 5 days after inoculation. The initial purification of TMV virus particles followed the protocol as described by Gooding and Hebert (1967) with modifications. Briefly, polyethylene glycol with molecular weight 8000 (PEG 8000) (Sigma-Aldrich) was used instead of PEG 6000. In addition, the semi-purified preparation was submitted to linear density sucrose gradient (0-18%), and ultracentrifuged at 228,000×g for 1.5 h. The light scattering region was collected and diluted with 100 ml of suspension buffer (35 mM Na2HPO4, 15 mM NaH2PO4 and 0.05% 2-mercaptoethanol, pH7.2). NaCl (0.4 g) and PEG 8000 (4 g) were added and stirred for at least 1 h on ice, then centrifuged at 9000×g for 15 min at 4° C. The pellets were re-suspended in 1 ml of suspension buffer. The concentration of the purified TMV suspension was determined (A260 nm=[…] for 1 mg/mL of TMV) with a Nanodrop (ND-1000, Thermo Fisher Scientific, MA, USA).
# as §2
# In addition to using inoculum made from lyophilized leaves of TMV infected N. benthamiana, we also used different concentrations (1 μg/ml, 10 μg/ml and 50 μg/ml) of purified TMV particles as inoculum to inoculate N. glutinosa and N. benthamiana pretreated with H2O, SA, VB, or F8-culture filtrate (FIG. 2, FIG. 3). […] The infection rate of TMV on N. benthamiana was also detected by use of qRT-PCR (Table 2).
# [3] = tested on: Tobacco mosaic virus (TMV); test: Symptoms / disease index induced by TMV in Nicotiana benthamiana; type: in vivo; conditions: N. benthamiana; systemic protection test; 7 dpi
# Method: FIG. 15A and FIG. 15B show disease index of N. benthamiana inoculated with TMV and Brassica juncea inoculated with TuMV. (FIG. 15A) N. benthamiana were inoculated with TMV. The disease index was classified into 4 levels according to the degree of yellowing, stunting and wilting at 7 dpi. (FIG. 15B) Brassica juncea were inoculated with TuMV. The disease index was classified into 3 levels according to the degree of leaf mosaic and stunting at 13 dpi.
# Plants were grown in a growth chamber with 10,000 lux fluorescent light and a 16-h light/8-h dark cycle. N. glutinosa (6-7 weeks old, 8-10 leaf stage), N. benthamiana (3-4 weeks old, 5-6 leaf stage) and Brassica juncea (14 days old, 2-3 true-leaf stage) were used for treatment and/or inoculation. […] Virus inoculum was prepared with 100 ml of 0.1 M potassium phosphate (KP) buffer (61.5% of 0.1 M K2HPO4 and 38.5% 0.1 M KH2PO4, pH 7.0) mixed with 0.1 g of lyophilized leaves of plants infected with Tobacco mosaic virus (TMV) (FIGS. 1, 4A-E, 8 and 9; FIG. 10, 11, 12, 14 and 15; Table 1), or TMV tagged with green fluorescence protein (TMV-GFP) (FIG. 5) (Rabindran, S., and Dawson, W.O. 2001. Assessment of recombinants that arise from the use of a TMV-based transient expression vector. Virology 284:182-189). […] The severity of TMV or TuMV symptom of infected plants were scored based on external phenotype (FIG. 15). […]
# [4] = tested on: TMV tagged with green fluorescence protein (TMV-GFP); test: TMV-GFP infection of Nicotiana benthamiana (fluorescent infection foci); type: in vivo; conditions: N. benthamiana
# Method: as §1, §2
# Photographs of TMV-GFP fluorescent infection foci in N. benthamiana leaves were taken under UV light at 5 and 7 days post-inoculation (dpi), and the level of fluorescence as well as the areas of fluorescent infection sites in each leaf were measured by using ImageJ v1.47. All imaging was conducted under identical illumination and exposure conditions to allow for comparisons. Mean values of areas of all infection foci per treatment were calculated.
# To analyze which virus infection steps are affected in F8-culture filtrate-treated plants, we used TMV tagged with green fluorescence protein (GFP) to inoculate N. benthamiana and monitor the infection of TMV. […] To compare TMV-GFP accumulation in each foci, we used a puncher to collect GFP foci under UV light and used qRT-PCR to quantify the TMV-GFP expression. […]
# [5] = tested on: PR-1; test: Relative expression of PR-1 by qRT-PCR; type: in vivo, Nicotiana benthamiana; conditions: N. benthamiana, no TMV, 24 hpt
# Text: Total RNA was isolated by use of Trizol (Invitrogen, Bethesda, Md.) according to the manufacturer's instruction. Residual DNA was removed by using the TURBO DNA-free kit (Ambion, Austin Tex., USA). cDNA was synthesized by using the PrimeScript RT-PCR Kit (Takara Bio, Shiga, Japan). Quantitative RT-PCR (qRT-PCR) involved the SYBR protocol (Life Technologies) and the ABI 7100 real-time PCR system (Applied Biosystems, Carlsbad, Calif.). For quantitative analysis, actin was used as an input control. Relative fold change in mRNA expression was determined by calculating 2^−ΔΔCt. The sequences of primers used are in Table S1.
# We collected both the local and upper un-treated (systemic) leaves at 24 h post-treatment (hpt) to analyze the expression of the PR-1 gene (a SAR marker gene) (Zheng et al., 2015). PR-1 gene expression was detected in SA- and VB- but not F8-culture filtrate-treated local leaves (FIG. 4C). […] In addition, we collected leaves from plants with whole plants pretreated with H2O, SA, VB or F8-culture filtrate. Consistently, PR-1 gene induction was detected in leaves of whole plants pretreated with SA and VB but not whole plants pretreated with F8-culture filtrate at 24 hpt (FIG. 4E).
# To analyze how F8-polysaccharide induces plant viral resistance, we measured the expression of SA-, JA- and ET-responsive immune marker genes in H2O- and F8-polysaccharide-treated plants (Cortes-Barco et al., 2010; Milling et al., 2011; Zhu et al., 2014). We first confirmed the induction of marker genes induced by SA (PR-1 and PR-2), JA (PDF-1.2 and PR-4), and ET (Osm and EREBP) in N. benthamiana (FIG. 14A). Plants were pretreated with H2O and F8-polysacccharide for total of three times with a 24-h interval between each spray as described previously, then leaves were collected from one set of individual plants at 0, 12, 24, 36, 48, 72, and 96 hpt. […] We detected the accumulation of TMV and the expression of SA-, JA- and ET-responsive immune marker genes (FIG. 9A-D, FIGS. S5C and D). […]
# [6] = Table 1, lyophilized leaf inoculum, 7 dpi, RT-PCR, SA 5 mM
# [7] = Table S3, fractions derived from F8-culture filtrate, 7 dpi, RT-PCR
compound,measurement,setting,value
"O=C(O)c1ccccc1O [SA, salicylic acid]",infection rate of TMV-inoculated plants,[1]; pretreatment before TMV inoculation,100%
same,"infection rate of TMV: number of plants detected with TMV to total TMV inoculated plants, Exp. 2",[1]; [6],5/5
same,"infection rate of TMV: number of plants detected with TMV to total TMV inoculated plants, Exp. 3",[1]; [6],4/5
same,"infection rate of TMV: number of plants detected with TMV to total TMV inoculated plants, Exp. 4",[1]; [6],5/5
same,"infection rate of TMV: number of plants detected with TMV to total TMV inoculated plants, Exp. 5",[1]; [6],5/5
same,"infection rate of TMV: number of plants detected with TMV to total TMV inoculated plants, Exp. 6",[1]; [6],5/5
same,"infection rate of TMV: number of plants detected with TMV to total TMV inoculated plants, Exp. 7",[1]; [6],5/5
same,"infection rate of TMV: number of plants detected with TMV to total TMV inoculated plants, Exp. 8",[1]; [6],5/5
same,"infection rate of TMV: number of plants detected with TMV to total TMV inoculated plants, Exp. 1","[1]; Table 1, three sprays at 24-h intervals, inoculum from lyophilized TMV-inoculated leaves, 7 dpi, RT-PCR, SA 5 mM",5/5
same,"infection rate of TMV: number of plants detected with TMV to total TMV inoculated plants, Total","[1]; Table 1, sum of Exp. 1-8, 7 dpi, RT-PCR",39/40
same,"infection rate of TMV: number of plants detected with TMV to total TMV inoculated plants, Exp. 1",[1]; [7],5/5
same,"infection rate of TMV: number of plants detected with TMV to total TMV inoculated plants, Exp. 2",[1]; [7],5/5
same,"infection rate of TMV: number of plants detected with TMV to total TMV inoculated plants, Exp. 3",[1]; [7],5/5
same,"infection rate of TMV: number of plants detected with TMV to total TMV inoculated plants, Total","[1]; Table S3, sum of Exp. 1-3, 7 dpi, RT-PCR",15/15
same,"infection rate of TMV particle: number of plants detected with TMV to total inoculated plants, Exp. 1, 1 μg/ml",[2]; TMV particle 1 μg/ml,6/6
same,"infection rate of TMV particle: number of plants detected with TMV to total inoculated plants, Exp. 2, 1 μg/ml",[2]; TMV particle 1 μg/ml,6/6
same,"infection rate of TMV particle: number of plants detected with TMV to total inoculated plants, Exp. 3, 1 μg/ml",[2]; TMV particle 1 μg/ml,15/15
same,"infection rate of TMV particle: number of plants detected with TMV to total inoculated plants, Exp. 1, 10 μg/ml",[2]; TMV particle 10 μg/ml,6/6
same,"infection rate of TMV particle: number of plants detected with TMV to total inoculated plants, Exp. 1, 50 μg/ml",[2]; TMV particle 50 μg/ml,6/6
same,viral symptoms with pretreatment of only local (lower) leaves and TMV inoculation of upper untreated leaves,[3],severe viral symptoms
same,number of initial TMV-GFP infection foci,[4]; 5 dpi,reduced
same,mean TMV accumulation per foci,[4]; qRT-PCR of punched GFP foci,similar
same,"infection rate of TMV-GFP: number of plants exhibiting green fluorescence under UV illumination to total TMV-GFP inoculated plants, Exp. 1","[4]; Table S2, 7 dpi, SA 5 mM",5/5
same,"infection rate of TMV-GFP: number of plants exhibiting green fluorescence under UV illumination to total TMV-GFP inoculated plants, Exp. 2","[4]; Table S2, 7 dpi, SA 5 mM",4/6
same,PR-1 gene expression in treated local leaves,[5]; local leaves pretreated,detected
same,PR-1 gene expression on systemic (upper untreated) leaves,[5]; local leaves pretreated,increased PR-1 gene expression
same,PR-1 gene induction in leaves of whole plants pretreated,[5]; whole plant pretreated,detected

# Reference: patent US11918000B2, “Methods for inducing resistance to virus in a plant, priming a plant to resist viruses, decreasing virus accumulation, or increasing PR1 expression in a plant” (Academia Sinica, priority 2019, dated 2024)
